The source of these data is US20070265164A1, “Active Substances for Increasing Pathogenic Defense in Plants and Methods for the Detection Thereof” (Bayer Cropscience GmbH, priority 2004, published 2007).

Test [1] deals with Contig3097_at, Allene oxide synthase. The test can be described thus: GEP, barley DNA chip, probe set 1.3. Also noted: fold induction: dose or concentration left out as unconfirmed. In kind it is in vivo. Conditions: for fold induction / fold induction at 150 g/ha: Hordeum vulgare, topical, read-out: Expression value, 1.3 Contig3097_at; for fold induction: rates of Table 1 (S7 500); for fold induction at 150 g/ha: 6 h. How it is done: (§1) Barley plants (cv. Baronesse) were grown in compost-filled pots (diameter: 10 cm) for 10 days in a controlled-environment cabinet under defined light, humidity and temperature conditions (white light, 70% atmospheric humidity, 24° C.). At the time of spray application, the seedlings were approximately 15 cm in size. The test substances selected in this example were molecules which differ markedly in their structure and which have a well documented pronounced safener effect, and other molecules which are known from the literature to have an effect on plant stress and pathogen tolerance (Table 1). The substances were prepared as stock solutions in DMSO (dimethyl sulfoxide) at c=10 mg/ml). This was used for preparing dilutions in water supplemented with 0.2% Agrotin (comprises polyvinyl alcohol, silicones, polysaccharides and pH regulators, manufacturer: Bayer CropScience AG, Monheim, Germany), as wetter, to give the application rates shown in the table. The amount of liquid for the spray application was 800 μl per pot, corresponding to 800 l/ha. For each 800 μl of spray mixture, 16 μl of EC premix: diacetone alcohol=1:6 were additionally added as formulation auxiliaries. The substances listed in Table 1 were applied to the leaves by means of a pneumatic spray pistol. Each substance was sprayed as 2 dosages, and all experiments were carried out as replicates (2 pots per substance). Sprayings with blank formulation without active ingredient were carried out as controls. After 6 hours, the leaves were harvested, frozen in liquid nitrogen and stored at −80° C. until further use. The labeled RNA probes for the DNA chip hybridization were prepared as described in the protocols (Expression Analysis, Technical Manual) from Affymetrix (Affymetrix Inc., 3380 Central Expressway, Santa Clara, Calif., USA). First, total RNA was isolated from in each case 500 mg of the harvested leaves. In each case 10 μg of total RNA was used for the first-strand and second-strand cDNA synthesis. The cDNA was amplified with T7 polymerase and simultaneously labeled with biotin-UTP. In each case, 20 μg of this biotinylated cDNA was employed for the hybridization of the barley genome array (Gene Chip Barleyl, order No.: 511012) from Affymetrix. This DNA microarray comprises DNA sequences of 22 840 genes which are composed of a total of 400 000 EST sequences. Thereafter, the DNA microarrays were washed in the Affymetrix Fluidics Station, stained with streptavidin/phycoerythrin (Molecular Probes, P/N S-866) and scanned with the matching Agilent Laser Scanner (Agilent Gene Array Scanner). The fluorescent data obtained were analyzed with the software Microarray Suite 5 from Affymetrix. After the quality had been checked, all DNA chip analyses were stored in a database. To determine the relative expression values for genes (induction factors, repression factors), test and control chips were compared with each other, and the scoring function set by the Affymetrix software was used as the basis. The 2 biological replications of one experiment were compared in each case with 2 control chips (blank formulation), and the 4 expression values obtained for each gene were used for calculating the median. These medians are shown in the results tables as induction factors. Similarity comparisons of expression profiles from different experiments and cluster analyses were carried out using the software GeneMaths 1.5 from Applied Maths (Applied Maths, Keistraat 120, 9830 Sint-Martens-Latem, Belgium).
(§2) Gene groups from specific metabolic pathways and signal transduction chains were put together by key word search in the annotations, of the genes, which were also provided by Affymetrix, and by Blast analyses (homology comparisons) of the DNA target sequences, i.e. of the positive sequence (identified on the basis of a modified expression profile) identified on the DNA chip, using gene sequences from other organisms, preferably plant organisms, with characterized functions. […]

The subject of test [2] is Contig1736_at, Lipoxygenase 1 (EC 1.13.11.12). The test can be described thus: GEP, barley DNA chip, probe set 1.10. The class given is in vivo. Also noted: fold induction: dose or concentration left out as unconfirmed. Conditions: for fold induction / fold induction at 150 g/ha: Hordeum vulgare, read-out: Expression value, 1.10 Contig1736_at; for fold induction: rates of Table 1 (S7 500); for fold induction at 150 g/ha: 6 h. How it is done:
as §1, §2

Test [3] relates to Contig12574_at, Putative lipoxygenase. The test can be described thus: GEP, barley DNA chip, probe set 1.11. The class given is in vivo. On the set-up: fold induction: dose or concentration left out as unconfirmed. To be noted: for fold induction / fold induction at 150 g/ha: Hordeum vulgare, read-out: Expression value, 1.11 Contig12574_at; for fold induction: rates of Table 1 (S7 500); for fold induction at 150 g/ha: 6 h. The protocol:
as §1, §2

Test [4] relates to Contig2326_s_at, 12-oxophytodienoic acid reductase. The test can be described thus: GEP, barley DNA chip, probe set 1.18. In kind it is in vivo. Also noted: fold induction: dose or concentration left out as unconfirmed. To be noted: for fold induction / fold induction at 150 g/ha: Hordeum vulgare, topical, read-out: Expression value, 1.18 Contig2326_s_at; for fold induction: rates of Table 1 (S7 500); for fold induction at 150 g/ha: 6 h. How it is done:
as §1, §2

The subject of test [5] is Contig5607_s_at, Pathogen-related protein (PirT06168). The test can be described thus: GEP, barley DNA chip, probe set 4.3. The class given is in vivo. On the set-up: fold induction: dose or concentration left out as unconfirmed. Conditions: for fold induction / fold induction at 150 g/ha: Hordeum vulgare, topical, read-out: Expression value, 4.3 Contig5607_s_at; for fold induction: rates of Table 1 (S7 500); for fold induction at 150 g/ha: 6 h. The protocol: as §1, §2

Another test has as its system aphids. The test can be described thus: Plant-free Sachez test, direct toxicity. In kind it is in vivo. The source says:
A direct toxicity of isoxadifen-ethyl (S3) against aphids was not detected in the plant-free Sachez test.

Another test relates to Jasmonate (JA). In words: Jasmonate (JA) concentration in leaves of treated plants, GC-MS/MS. In kind it is in vivo, barley. The protocol:
Barley plants (cv. Baronesse) were grown under the conditions described in Example 1 and treated by spray application with safener isoxadifen-ethyl (S 3). The application rates were chosen as follows:
(1) 30 [g a.i./ha]; (2) 150 [g a.i./ha]; (3) blank formulation (no active ingredient)
The plant leaves were harvested at different points in time after the treatment (h=hours), viz. after 1 h, 2 h, 4 h, 6 h, 12 h, 24 h and 48 h. All samples were designed in each case as replications of 3 pots.
The octadecanoates and jasmonates were processed from the leaves following a procedure described in the literature (Müller A, Düchting P and Weiler E W (2002)), A multiplex GC-MS/MS technique for the sensitive and quantitative single-run analysis of acidic phytohormones and related compounds, and its application to Arabidopsis thaliana. Planta, 216, 44-56).
300 mg of plant material were extracted for each measuring point.
50 pmol [^13C]2-JA and 100 pmol [17,17,17,18,18-^2H]-cis-OPDA were applied as internal standards. The extracts were purified via aminopropyl anion-exchange chromatography in miniature solid-phase exchanger columns which had been prepared in-house.
The results are shown in Tables 3a to 3d, the values shown being in each case means of the 3 applications.

Setting [6] is: barley leaves 6 h after spray application, median induction factor vs control.
Where [7] appears, read: barley leaves 6 h after spray application, rates of Table 1 (150 g a.i./ha, S7 500), median induction factor vs control.

On to `COC(=O)C1=NN(c2ccc(Cl)cc2Cl)C(C)(C(=O)OC)C1` (stereo not shown) [S1, Mefenpyr-dimethyl], for which the fold induction was found to be 1 in test [1] (setting [6]); 1 in test [2] (setting [6]); 0.5 in test [3] (setting [6]); 2.31 in test [4] (setting [6]); 18.6 in test [5] (setting [6]).

Regarding `CCOC(=O)C(Oc1ccc(Cl)c2cccnc12)C(=O)OCC` [S5], the fold induction was 1 in test [1] (setting [6]); 1 in test [2] (setting [6]); 1 in test [3] (setting [6]); 1 in test [4] (setting [6]); 8.75 in test [5] (setting [6]).

In the case of `O=C(O)c1cc(Cl)cc(Cl)c1O` [S10], the fold induction in test [1] (setting [6]), in test [2] (setting [6]), in test [3] (setting [6]), in test [4] (setting [6]) and in test [5] (setting [6]) was 1 throughout.

In the case of `NC(=O)c1ccc(C(F)(F)F)nc1O` [S6], the fold induction in test [1] (setting [6]) turned out to be 1; in test [2] (setting [6]), 1; in test [3] (setting [6]), 1; in test [4] (setting [6]), 1; in test [5] (setting [6]), 9.99.

Turning to `O=C(O)c1cc(Cl)nc(Cl)c1` [S9], the fold induction at 150 g/ha in test [1], in test [2], in test [3], in test [4] and in test [5] was 1 in each case.

With `CCOC(=O)C1=NOC(c2ccccc2)(c2ccccc2)C1` [S3, Isoxadifen-ethyl], the fold induction at 150 g/ha was found to be 8.51 in test [1]; 2.91 in test [2]; 2.81 in test [3]; 1 in test [4]; 13.4 in test [5]. The “Direct toxicity against aphids” value in the test with aphids is given as “not detected”. Further, the “Jasmonate (JA) concentration” value with Jasmonate (JA) (30 g a.i/ha, 1 hour) amounted to 600 pmol/g leaf tissue; in the test with Jasmonate (JA) (30 g a.i/ha, 2 hours), 320 pmol/g leaf tissue; in the test with Jasmonate (JA) (30 g a.i/ha, 4 hours) it was 790 pmol/g leaf tissue; in the test with Jasmonate (JA) (30 g a.i/ha, 6 hours), 620 pmol/g leaf tissue; in the test with Jasmonate (JA) (150 g a.i./ha, 1 hour), 290 pmol/g leaf tissue; with Jasmonate (JA) (150 g a.i./ha, 2 hours), 280 pmol/g leaf tissue. Besides, the “Jasmonate (JA) concentration” value in the test with Jasmonate (JA) (150 g a.i./ha, 4 hours) came to 270 pmol/g leaf tissue; in the test with Jasmonate (JA) (150 g a.i./ha, 6 hours), 275 pmol/g leaf tissue; in the test on Jasmonate (JA) (150 g a.i./ha, 12 hours) it was 155 pmol/g leaf tissue; in the test with Jasmonate (JA) (150 g a.i./ha, 24 hours), 265 pmol/g leaf tissue; with Jasmonate (JA) (150 g a.i./ha, 48 hours) it was 320 pmol/g leaf tissue. For the same compound, the “Increase in JA concentration relative to blank formulation samples” value in the test with Jasmonate (JA) (maximum over rates and times) is given as ≤ 5 times. For the same compound, the “Jasmonate (JA) concentrations, range over the experiment” value with Jasmonate (JA) (summary of Tables 3c, 3d, all rates and times) was 70-800 pmol/g leaf tissue.

Turning to `CCCCCC(C)OC(=O)COc1ccc(Cl)c2cccnc12` (stereo not shown) [S4, Cloquintocet-mexyl], the fold induction in test [1] (setting [6]) is 1; in test [2] (setting [6]), 1; in test [3] (setting [6]), 1; in test [4] (setting [6]), 2.45; in test [5] (setting [6]), 18.4.

Consider `CSC(=O)c1cccc2nnsc12` [S8, Acibenzolar-S-methyl], for which the fold induction in test [1] (setting [6]) turned out to be 2.11; in test [2] (setting [6]), 1; in test [3] (setting [6]), 2.11; in test [4] (setting [6]), 1; in test [5] (setting [6]), 1.

On to `O=C(O)C1=NN(c2ccc(Cl)cc2Cl)C(c2ccc(F)cc2)C1` (stereo not shown) [S2], for which the fold induction in test [1] (setting [6]) worked out at 1; in test [2] (setting [6]) it was 1; in test [3] (setting [6]), 1; in test [4] (setting [6]), 1; in test [5] (setting [6]), 15.6.

Turning to `O=C(NO)c1ccccc1O` [S7, Salicyl hydroxamate], the “Expression value, 1.3 Contig3097_at” value in test [1] (setting [7]) amounted to 1.00 x times. In test [2] (setting [7]), the “Expression value, 1.10 Contig1736_at” value stood at 1.00 x times. In addition, the “Expression value, 1.11 Contig12574_at” value in test [3] (setting [7]) was determined as 1.00 x times. Also, in test [4] (setting [7]), the “Expression value, 1.18 Contig2326_s_at” value was 1.00 x times. In addition, the “Expression value, 4.3 Contig5607_s_at” value in test [5] (setting [7]) is 1.00 x times.
